This test concerns female BALB/c By J Ico mice. As to conditions: mouse, in vivo.

Each structure is given as a SMILES string.

Regarding `CC(C)CCC[C@@H](C)[C@H]1CC[C@H]2[C@@H]3CC=C4C[C@@H](OC(=O)NCCN(C)C)CC[C@]4(C)[C@H]3CC[C@]12C.Cl` [DCchol, DC-Chol hydrochloride], the “Adjuvant effect on local IgA responses (in words)” value is recorded as “marked adjuvant effect”, the “Adjuvant effect on serum anti-gp160 antibodies (in words)” value is “good adjuvant” and the “Factor by which IgA normalized specific activities (NSA) were multiplied compared to gp160 alone” value came out at 12.

The values above are taken from US20050118188A1, “Pharmaceutical composition for immunization against AIDS” (Aventis Pasteur, S.A., priority 2000, published 2005).
